For one assay, the system named is P388. Briefly: Antitumor activity against mouse P388 cells. Format: functional.
The next assay relates to Phytophthora cinnamomi. The assay can be described thus: Growth inhibition of Phytophthora cinnamomi. Format: functional, organism-based.

The source made the active and inactive calls. No cut-off for these calls is given here.

In the assay with P388, `C=C1C(=O)C[C@@H]2[C@@H]3CC[C@@H](C(=O)O)[C@@]12CC3(C)C` [TERRECYCLIC ACID A] registered an Activity of less than 0.5 µg/mL. In the assay with Phytophthora cinnamomi, the result was Active.

The values are drawn from ChEMBL document CHEMBL1151668, “Molecular structure of terrecyclodiol: a derivative of the antifungal metabolite terrecyclic acid A from Aspergillus terreus” (1996).
